pEC50: −log10 of the molar value. Like-named read-outs stand apart in the source and are kept apart here. Bridge positions count the residues as written; N and C are the ends. Square brackets hold non-standard residues; d marks the D form. Peptide text beside a SMILES is read from it. R8 = C=CCCCCCC[C@@](C)(N)C(=O)O; S5 = C=CCCC[C@](C)(N)C(=O)O; Nle = CCCC[C@H](N)C(=O)O
Legend:
H7N9 A/Anhui/1/2013 = assay: microbe, parasite or virus in culture; assay type: cell-based, influenza A virus; settings: read-out: EC50
[1] = system: H5N1 A/Hong Kong/213/2003; assay: microbe, parasite or virus in culture; assay type: cell-based, influenza A virus; settings: read-out: EC50
in vitro = settings: dog
H1N1 California/07/2009 [2] = assay: microbe, parasite or virus in culture; assay type: cell-based, influenza A virus; settings: Cytopathic effect/toxicity (Visual), MDCK cells; read-out: EC50 (μM) H1N1 California/07/2009
[3] = system: H1N1 A/Solomon Island/03/2006; assay type: cell-based, influenza A virus; settings: Influenza A H1N1 A/Solomon Is./3/2006-M; Drug Assay Neutral Red; read-out: EC50
H3N2 Perth/16/2009 [4] = assay: microbe, parasite or virus in culture; assay type: cell-based, influenza A virus; settings: for pEC50: read-out: EC50
[5] = system: influenza virus, various viral strains; assay type: cell-based; settings: VYR/Neutral Red
[6] = system: influenza virus, various viral strains; assay: organism not typed; assay type: cell-based; settings: read-out: EC50
H3N2 Perth/16/2009 [7] = assay: microbe, parasite or virus in culture; assay type: cell-based, influenza A virus
H1N1 California/07/2009 [8] = assay: microbe, parasite or virus in culture; assay type: cell-based, influenza A virus; settings: for pEC50: Drug Assay Neutral Red, read-out: EC50
[9] = Influenza A H1N1 California/07/2009

CCCC[C@H](NC(C)=O)C(=O)N[C@@H](CC(=O)O)C(=O)N[C@H](C(=O)N[C@@H](CC(N)=O)C(=O)N[C@]1(C)CCCCCCC=CCCC[C@@](C)(C(=O)N[C@@H](C)C(=O)N[C@@H](C)C(=O)N[C@@H](CCC(N)=O)C(N)=O)NC(=O)[C@H](C)NC(=O)[C@H](CC(C)C)NC(=O)[C@H](Cc2ccccc2)NC(=O)[C@H](CC(C)C)NC(=O)[C@H](CC(C)C)NC(=O)[C@H]([C@@H](C)O)NC1=O)C(C)C [SP-18] (Ac-[Nle]DVN[R8]TLLFLA[S5]AAQ-NH2; staple 5-12)
pEC50 (H7N9 A/Anhui/1/2013): < 4.30 | pEC50 [1]: < 4.30 | CC50 (in vitro; CC50): > 50 µM | CC50 (in vitro; CC50 (μM) H1N1 California/07/2009, Cell cytotoxicity (CC), run with H1N1 California/07/2009): > 100 µM | CC50 (in vitro; CC50 (μM) H3N2 Perth/16/2009, Cell cytotoxicity (CC), run with H3N2 Perth/16/2009): > 100 µM | CC50 (in vitro; CC50, MDCK cells, run with Influenza A H1N1 California/07/2009, Neutral Red): > 100 µM | CC50 (in vitro; CC50, MDCK cells, run with Influenza A H1N1 California/07/2009, VYR/Neutral Red): > 100 µM | CC50 (in vitro; CC50, MDCK cells, run with Influenza A H1N1 California/07/2009, Visual): > 100 µM | CC50 (in vitro; CC50, MDCK cells, run with Influenza A H3N2 Perth/16/2009, Neutral Red): > 100 µM | CC50 (in vitro; CC50, MDCK cells, run with Influenza A H3N2 Perth/16/2009, VYR/Neutral Red): > 100 µM | CC50 (in vitro; CC50, run with Influenza A H1N1 A/Solomon Is./3/2006-M, Neutral Red): > 100 µM | CC50 (in vitro; CC50, run with Influenza A H1N1 A/Solomon Is./3/2006-M, Visual): > 100 µM | CC50 (in vitro; CC50, run with Influenza A H1N1 California/07/20/09 (so in the source), later run, Neutral Red): > 100 µM | CC50 (in vitro; CC50, run with Influenza A H1N1 California/07/20/09 (so in the source), Visual/Neutral Red): > 100 µM | CC50 (in vitro; CC50, run with Influenza A H1N1 California/07/2009, Neutral Red): > 100 µM | CC50 (in vitro; CC50, run with Influenza A H3N2 Perth/16/2006 (so in the source), Neutral Red): > 100 µM | CC50 (in vitro; CC50, run with Influenza A H3N2 Perth/16/2006 (so in the source), Visual): > 100 µM | CC50 (in vitro; CC50, run with Influenza A H3N2 Perth/16/2009, last run, Neutral Red): > 100 µM | CC50 (in vitro; CC50, run with Influenza A H3N2 Perth/16/2009, Visual/Neutral Red): > 100 µM | EC50 (H1N1 California/07/2009 [2]): 1.5 to 10 µM | pEC50 [3]: 4.54 | EC50 (H3N2 Perth/16/2009 [4]; Cytopathic effect/toxicity (Neutral red), MDCK cells, read-out: EC50 (μM) H3N2 Perth/16/2009): 25 to 50 µM | pEC50 (H3N2 Perth/16/2009 [4]; Influenza A H3N2 Perth/16/2006 (so in the source), Drug Assay Neutral Red): 4.66 | pEC50 (H3N2 Perth/16/2009 [4]; Influenza A H3N2 Perth/16/2009, last run, Drug Assay Neutral Red): < 4.00 | EC90 (H3N2 Perth/16/2009 [4]; Influenza A H3N2 Perth/16/2009, Drug Assay Visual/Neutral Red): > 100 µM | pEC50 (H3N2 Perth/16/2009 [4]; Influenza A H3N2 Perth/16/2009, Neutral Red): 4.48 | EC90 [5, 9]: 6.4 µM | EC90 ([5]; Influenza A H3N2 Perth/16/2009): > 100 µM | pEC50 ([6]; Influenza A H1N1 A/Solomon Is./3/2006-M, Drug Assay Visual): 4.89 | pEC50 [6]: < 4.30 | EC50 (H3N2 Perth/16/2009 [7]; Cytopathic effect/toxicity (Visual), MDCK cells, read-out: EC50 (μM) H3N2 Perth/16/2009): 25 to 50 µM | pEC50 (H3N2 Perth/16/2009 [7]; Influenza A H3N2 Perth/16/2006 (so in the source), Drug Assay Visual, read-out: EC50): 4.85 | EC50 (H1N1 California/07/2009 [8]; Cytopathic effect/toxicity (Neutral red), MDCK cells, read-out: EC50 (μM) H1N1 California/07/2009): 1.5 to 10 µM | pEC50 (H1N1 California/07/2009 [8]; Influenza A H1N1 California/07/20/09 (so in the source), later run): 5.15 | EC90 (H1N1 California/07/2009 [8]; Influenza A H1N1 California/07/20/09 (so in the source), Drug Assay Visual/Neutral Red): 4 µM | pEC50 (H1N1 California/07/2009 [8]; [9]): 5.42

— patent US10059741B2 (priority 2015, dated 2018)
